Test results published in PMC12040169 (PLOS Biology, 2025).

assay: in vitro; settings: human, hela cells

Q: With `O=C(O)c1n[s+][n-]c1-c1cc([N+](=O)[O-])cc([N+](=O)[O-])c1O` [CBK261584] as the molecule, how does the viability at 28.5 h, 10 µM read?
A: 97.2%

same assay, conditions: human, hela cells, % viability

Q: With `N=c1n(-c2ccccc2)c(O)c(C(c2ccncc2)c2c(O)n(-c3ccccc3)c(=N)n(-c3ccccc3)c2=O)c(=O)n1-c1ccccc1` (stereo not drawn) [CBK261438] as the molecule, how does the viability at 28.5 h, 10 µM read?
A: 82%

Q: Which viability at 28.5 h, 10 µM does the source give for `CC(=O)NS(=O)(=O)c1ccc(Nc2ccc([N+](=O)[O-])c3nonc23)cc1` [CBK261443] here?
A: 89.7%

Q: For `Cc1cc(C)nc(NS(=O)(=O)c2ccc(Nc3ccc4nonc4c3[N+](=O)[O-])cc2)n1` [CBK261444], which viability at 28.5 h, 10 µM is on record?
A: 103%

Q: With `CCc1nnc(NS(=O)(=O)c2ccc(Nc3ccc4nonc4c3[N+](=O)[O-])cc2)s1` [CBK261445] as the molecule, how does the viability at 28.5 h, 10 µM read?
A: 98%

Q: For `CC12CN3CC(C)(CN(C1)C3c1ccc(Br)cc1)C2=O` (stereo not drawn) [CBK261452], which viability at 28.5 h, 10 µM is on record?
A: 92.1%

Q: Which viability at 28.5 h, 10 µM does the source give for `COc1cc(C2N3CC4(C)CN2CC(C)(C3)C4=O)ccc1O` (stereo not drawn) [CBK261453] here?
A: 99.6%

Q: Which viability at 28.5 h, 10 µM does the source give for `CC1CCN(CCOCC(O)CNS(=O)(=O)O)CC1` (stereo not drawn) [CBK261454N] here?
A: 124%

Q: For `NC(=O)C1CCN(S(=O)(=O)c2ccc([N+](=O)[O-])cc2)CC1` [CBK261455], which viability at 28.5 h, 10 µM is on record?
A: 87%

Q: With `CN(CCO)S(=O)(=O)c1ccccc1[N+](=O)[O-]` [CBK261457] as the molecule, how does the viability at 28.5 h, 10 µM read?
A: 102%

Q: For `CN(Cc1ccccc1)S(=O)(=O)c1ccccc1[N+](=O)[O-]` [CBK261458], which viability at 28.5 h, 10 µM is on record?
A: 92.3%

Q: For `Cc1ncc(COP(=O)(O)O)c(/C=N/c2ccc3ccccc3c2)c1O` [CBK261460], which viability at 28.5 h, 10 µM is on record?
A: 106%

Q: With `O=C(O)/C=C/C(=O)Nc1ccccc1C(=O)O` [CBK261461] as the molecule, how does the viability at 28.5 h, 10 µM read?
A: 101%

Q: For `CN(C)CCCO/N=C(\c1ccccc1)c1ccncc1` [CBK261464G], which viability at 28.5 h, 10 µM is on record?
A: 95.3%

Q: Which viability at 28.5 h, 10 µM does the source give for `CN1C2CCC1CC(OC(=O)CCN1CCOCC1)C2` (stereo not drawn) [CBK261465] here?
A: 97.4%

Q: With `CN(C)CCCNc1c(N)c(=O)oc2ccccc12` [CBK261468] as the molecule, how does the viability at 28.5 h, 10 µM read?
A: 94.3%

Q: With `O=c1oc2ccccc2c(NCCCN2CCOCC2)c1[N+](=O)[O-]` [CBK261471] as the molecule, how does the viability at 28.5 h, 10 µM read?
A: 120%

Q: Which viability at 28.5 h, 10 µM does the source give for `O=C(Nc1cccc2cccnc12)c1cccc2ccccc12` [CBK261473] here?
A: 72.7%

Q: For `O=C(/C=C/c1ccco1)Nc1cc2ccccc2cc1NC(=O)/C=C/c1ccco1` [CBK261474], which viability at 28.5 h, 10 µM is on record?
A: 99.5%

Q: Which viability at 28.5 h, 10 µM does the source give for `CC(=O)C12CCCCC1CC1C3CC(C)C4(O)CC(O)CCC4(C)C3CCC12C` (stereo not drawn) [CBK261479] here?
A: 91.8%

Q: Which viability at 28.5 h, 10 µM does the source give for `COc1cc(/C=N/NC(=O)C2COc3ccccc3O2)cc([N+](=O)[O-])c1O` (stereo not drawn) [CBK261480] here?
A: 89.1%

Q: With `CC(C)Cc1ccc(C(C)c2nc3ccccc3[nH]2)cc1` (stereo not drawn) [CBK261484] as the molecule, how does the viability at 28.5 h, 10 µM read?
A: 89.7%

Q: For `Nc1ccc(Oc2ccc(-n3c(=O)c4cc5c(=O)n(-c6ccc(Oc7ccc(N)cc7)cc6)c(=O)c5cc4c3=O)cc2)cc1` [CBK261489], which viability at 28.5 h, 10 µM is on record?
A: 104%

Q: For `CC(=O)N/C(=C\c1ccccc1)C(=O)NC(C)C(=O)O` (stereo not drawn) [CBK261491], which viability at 28.5 h, 10 µM is on record?
A: 99.1%

Q: For `Nc1ccc(S(=O)(=O)O)c2cccc(S(=O)(=O)O)c12` [CBK261492N], which viability at 28.5 h, 10 µM is on record?
A: 99.6%

Q: With `Nc1nc(N)nc(-c2ccc(-c3nc(N)nc(N)n3)cc2)n1` [CBK261494] as the molecule, how does the viability at 28.5 h, 10 µM read?
A: 90.4%

Q: With `O=C(O)c1cccc(N2C(=O)C3C4C=CC(C3C2=O)C2C(=O)N(c3cccc(C(=O)O)c3)C(=O)C42)c1` (stereo not drawn) [CBK261495] as the molecule, how does the viability at 28.5 h, 10 µM read?
A: 110%

Q: With `CN1CCN(CCC(=O)N/N=C/c2ccc3c(c2)OCO3)CC1` [CBK261498] as the molecule, how does the viability at 28.5 h, 10 µM read?
A: 91.5%

Q: For `COc1cccc(/C=N/NC(=O)CCN2CCN(C)CC2)c1O` [CBK261499], which viability at 28.5 h, 10 µM is on record?
A: 91.3%

Q: For `CN1CCN(CCC(=O)N/N=C/c2ccccn2)CC1` [CBK261501], which viability at 28.5 h, 10 µM is on record?
A: 114%

Q: For `CN1CCN(CCC(=O)N/N=C/c2c[nH]c3ccccc23)CC1` [CBK261502], which viability at 28.5 h, 10 µM is on record?
A: 94.7%

Q: Which viability at 28.5 h, 10 µM does the source give for `CN1CCN(CCC(=O)N/N=C/c2ccsc2)CC1` [CBK261505] here?
A: 94.8%

Q: For `COc1c2c(nc3ccccc13)OC(C(C)(O)CO)C2` (stereo not drawn) [CBK261506], which viability at 28.5 h, 10 µM is on record?
A: 87.6%

Q: For `Cc1ccc2nc(-c3ccc(N)cc3)sc2c1S(=O)(=O)O` [CBK261510], which viability at 28.5 h, 10 µM is on record?
A: 96.3%

Q: For `[O-][N+]1=C2CCc3c(no[n+]3[O-])C2(O)CC1N1CCOCC1` (stereo not drawn) [CBK261515], which viability at 28.5 h, 10 µM is on record?
A: 112%

Q: Which viability at 28.5 h, 10 µM does the source give for `CN1CCN(Cc2ccccc2[N+](=O)[O-])CC1` [CBK261524] here?
A: 85.5%

Q: Which viability at 28.5 h, 10 µM does the source give for `O=C(O)CN(CC(=O)O)S(=O)(=O)c1ccc(Cl)cc1` [CBK261526] here?
A: 92.2%

Q: For `CCN(CC)Cc1c(O)ccc2c(C#N)c(C)n(-c3ccccc3)c12` [CBK261527C], which viability at 28.5 h, 10 µM is on record?
A: 94.9%

Q: For `O=C(O)CCCC(=O)Nc1cccc([N+](=O)[O-])c1` [CBK261530], which viability at 28.5 h, 10 µM is on record?
A: 101%

Q: Which viability at 28.5 h, 10 µM does the source give for `COc1cccc(CN(C)C2CCN(C)CC2)c1OC` [CBK261532] here?
A: 97.7%

Q: For `NS(=O)(=O)c1ccc(/N=C/c2cccc(O)c2O)cc1` [CBK261533], which viability at 28.5 h, 10 µM is on record?
A: 87.8%

Q: For `COc1cc2c(cc1OC)CN(Cc1ccccc1[N+](=O)[O-])CC2` [CBK261535], which viability at 28.5 h, 10 µM is on record?
A: 89.8%

Q: For `NS(=O)(=O)c1ccc(NC(=O)CCCOc2ccc(Cl)cc2Cl)cc1` [CBK261536], which viability at 28.5 h, 10 µM is on record?
A: 104%

Q: For `CCOC(=O)C1CCCCN1Cc1ccc(O)c(OC)c1` (stereo not drawn) [CBK261541], which viability at 28.5 h, 10 µM is on record?
A: 96.9%

Q: Which viability at 28.5 h, 10 µM does the source give for `CCOc1ccc(NC(=O)C2C3c4ccccc4C(c4ccccc43)C2C(=O)O)cc1` (stereo not drawn) [CBK261544] here?
A: 102%

Q: With `O=C(Nc1ccc(-c2nc(-c3ccccc3)c3cc(NC(=O)c4cccs4)ccc3n2)cc1)c1cccs1` [CBK261547] as the molecule, how does the viability at 28.5 h, 10 µM read?
A: 86%

Q: With `O=[N+]([O-])c1ccc(O)c(/C=N/c2ccc3cc4ccc(/N=C/c5cc([N+](=O)[O-])ccc5O)cc4nc3c2)c1` [CBK261557] as the molecule, how does the viability at 28.5 h, 10 µM read?
A: 57.4%

Q: Which viability at 28.5 h, 10 µM does the source give for `Oc1ccc(CN2CCN(c3ncccn3)CC2)cc1` [CBK261567] here?
A: 105%

Q: For `O=[N+]([O-])c1ccc(Cl)cc1CN1CCN(C/C=C/c2ccccc2)CC1` [CBK261568], which viability at 28.5 h, 10 µM is on record?
A: 106%

Q: For `COc1ccc(CN2CCN(c3ccccn3)CC2)cc1O` [CBK261570], which viability at 28.5 h, 10 µM is on record?
A: 90.5%

Q: Which viability at 28.5 h, 10 µM does the source give for `CN1CCC(N(C)Cc2cc(Cl)ccc2[N+](=O)[O-])CC1` [CBK261576] here?
A: 91.1%

Q: For `CCn1c2ccccc2c2cc(CN3CCN(c4ccccc4OC)CC3)ccc21` [CBK261579], which viability at 28.5 h, 10 µM is on record?
A: 85.4%

Q: For `CCc1nc2ccccc2c(NC(=O)CN2CCCCCC2)c1C` [CBK261580G], which viability at 28.5 h, 10 µM is on record?
A: 90.3%

Q: For `COc1cc(CN2CCN(C/C=C/c3ccccc3)CC2)cc(Br)c1O` [CBK261582], which viability at 28.5 h, 10 µM is on record?
A: 101%

Q: With `Cc1ccc2nc(-c3ccc(/N=C/c4cccc(O)c4O)cc3)sc2c1` [CBK261583] as the molecule, how does the viability at 28.5 h, 10 µM read?
A: 96%

same assay, conditions: human, hela cells, % viability, bulk resorufin, single well

Q: With `C=CCN1C(=O)/C(=N\Nc2ccc(S(=O)(=O)O)cc2)C(=O)NC1=S` [CBK261440] as the molecule, how does the viability at 28.5 h, 10 µM read?
A: 92%

Q: With `Oc1ccc(CN2CCN(c3cccc(Cl)c3)CC2)cc1` [CBK261528] as the molecule, how does the viability at 28.5 h, 10 µM read?
A: 109%

Q: For `Oc1cccc(CN2CCN(c3cccc(Cl)c3)CC2)c1` [CBK261543], which viability at 28.5 h, 10 µM is on record?
A: 90.1%

Q: Which viability at 28.5 h, 10 µM does the source give for `COc1ccc(CN2CCN(Cc3ccccc3)CC2)c(OC)c1` [CBK261553] here?
A: 115%

Q: For `O=C(O)c1cccc(NC(=O)c2cc([N+](=O)[O-])cc([N+](=O)[O-])c2)c1` [CBK261555], which viability at 28.5 h, 10 µM is on record?
A: 92.8%

Q: With `CCN1CCN(Cc2cc(Br)c(OC)cc2OC)CC1` [CBK261566] as the molecule, how does the viability at 28.5 h, 10 µM read?
A: 103%

Q: For `O=[N+]([O-])c1ccccc1CN1CCN(c2ccccc2Cl)CC1` [CBK261572], which viability at 28.5 h, 10 µM is on record?
A: 92%

Q: With `CCOc1ccccc1CN1CCN(C)CC1` [CBK261577] as the molecule, how does the viability at 28.5 h, 10 µM read?
A: 91%
